We go through one compound from patent publication US4161520A, “Method of treating hypertension” (priority 1976, dated 1979).

The test system of the test is DOCA Na rat. Put plainly: Low dose chronic administration in the DOCA Na rat (Example 4, Table IV). Format: in vivo. To be noted: for Stroke Volume Index, mean value: control 4.82±0.31; for Pulse pressure, mean value: control 62.5±5.3; for Arterial blood pressure, mean value: control 175.0±3.8; for Arterial blood pressure, % Δ / Pulse pressure, % Δ / Stroke Volume Index, % Δ: vs control. The procedure: A test was conducted for antihypertensive activity in the DOCA Na rat utilizing low dose chronic administration.
DOCA Na male rats weighing 170 to 210 grams are used in the test. DOCA Na hypertension is induced by unilateral nephrectomy followed by subcutaneous implantation of a 25 mg. desoxycorticosterone (DOCA) pellet. Animals are placed in individual cages receiving 0.9% sodium chloride solution to drink and rat chow diet ad libitum. Two weeks are allowed to elapse from the time of surgery for development of hypertension, i.e., systolic blood pressure of at least 150 mmHg.
Mean blood pressure and heart rate in the rats dosed at 5 mg/kg/day, 1 mg/kg/day, 0.1 mg/kg/day and as those used as controls are measured directly by placing a polyethylene catheter in a femoral artery and thereafter measuring the blood pressure by a Stathem Pressure Transducer. Control animals and drug dosed subjects are measured side by side. Direct readings were taken when the animal model began to show signs of inherent deterioration.
The experimental results are represented as absolute values. Drug-related alterations in mean blood pressure are expressed as percentage change by comparing control absolute values with drug absolute values. Compounds are considered active when about a 15% or greater reduction in blood pressure is obtained. However, the reduction in blood pressure must show mathematical significance ([…]).
A derivative of the polyether ionophore, laslaocid, i.e., the bromo derivative of lasalocid, was tested in the above screen. The compound was administered in a food admix on a daily basis.

Setting [1] is: 0.1 mg/kg/day in food admix, at 24 Days.
[2] abbreviates: 1 mg/kg/day in food admix, at 28 Days.
Where [3] appears, read: 5 mg/kg/day in food admix, at 11 Days.

For `CC[C@@H](C(=O)[C@@H](C)[C@@H](O)[C@H](C)CCc1c(Br)cc(C)c(O)c1C(=O)O)[C@H]1O[C@](CC)([C@H]2CC[C@](O)(CC)[C@H](C)O2)C[C@@H]1C` [bromolasalocid], under setting [1], the “Stroke Volume Index, mean value” came to 4.03±0.17; the “Pulse pressure, mean value” is on record as 41.1±7.4; the “Arterial blood pressure, mean value” was 132.4±16.0; the “Arterial blood pressure, % Δ” value is -24.34%. For the same compound, under setting [1], the “Pulse pressure, % Δ” value is on record as -34.24% and the “Stroke Volume Index, % Δ” value was -16.39%. Moreover, under setting [2], the “Stroke Volume Index, mean value” is given as 5.86±.31; the “Pulse pressure, mean value” was 45±3.5; the “Arterial blood pressure, mean value” is listed as 140.1±16; the “Arterial blood pressure, % Δ” value was -19.94%. For the same compound, under setting [2], the “Pulse pressure, % Δ” value was -28.00% and the “Stroke Volume Index, % Δ” value is given as 21.58%. For the same compound, under setting [3], the “Stroke Volume Index, mean value” came to 4.96±0.61; the “Pulse pressure, mean value” amounted to 47.4±7.3; the “Arterial blood pressure, mean value” amounted to 140.0±12.6; the “Arterial blood pressure, % Δ” value is -20.00%. Further, under setting [3], the “Pulse pressure, % Δ” value is given as -24.16% and the “Stroke Volume Index, % Δ” value amounted to 2.90%. Further, for the setting “chronic administration”, the “blood pressure (in words)” value is “lowered”, the “pulse pressure (in words)” value was “lowered”, the “pump performance (in words)” value is “competent” and the “stroke volume index (in words)” value is “no significant alteration has occurred”.
